Laboratory results reported in ChEMBL document CHEMBL1128686, “Technetium-99m-labeled HOE 140: a potential bradykinin B2 receptor imaging agent” (J Med Chem, 1995).

Experiments:
Rattus norvegicus [1] = test: Distribution in blood of healthy rat 24 hr after iv injection into the femoral vein; format: ADME, organism-based; conditions: in vivo
Rattus norvegicus [2] = test: Distribution in small intestine of healthy rat 5 min after iv injection into the femoral vein; format: ADME, organism-based; conditions: in vivo
Rattus norvegicus [3] = test: Distribution in kidney of healthy rat 15 min after iv injection into the femoral vein; format: ADME, organism-based; conditions: in vivo, 0.25 h
Rattus norvegicus [4] = test: Distribution in liver of healthy rat 4 hr after iv injection into the femoral vein; format: ADME, organism-based; conditions: in vivo
Rattus norvegicus [5] = test: Distribution in content of small intestine of healthy rat 4 hr after iv injection into the femoral vein; format: ADME, organism-based; conditions: in vivo
Rattus norvegicus [6] = test: Distribution in spleen of healthy rat 15 min after iv injection into the femoral vein; format: ADME, organism-based; conditions: in vivo, 0.25 h
Rattus norvegicus [7] = test: Distribution in colon of healthy rat 24 hr after iv injection into the femoral vein; format: ADME, organism-based; conditions: in vivo
Rattus norvegicus [8] = test: Distribution in content of colon of healthy rat 15 min after iv injection into the femoral vein; format: ADME, organism-based; conditions: in vivo, 0.25 h
Rattus norvegicus [9] = test: Distribution in colon of healthy rat 30 min after iv injection into the femoral vein; format: ADME, organism-based; conditions: in vivo, 0.5 h
Rattus norvegicus [10] = test: Distribution in blood of healthy rat 5 min after iv injection into the femoral vein; format: ADME, organism-based; conditions: in vivo
Rattus norvegicus [11] = test: Distribution in stomach of healthy rat 5 min after iv injection into the femoral vein; format: ADME, organism-based; conditions: in vivo
Rattus norvegicus [12] = test: Distribution in stomach of healthy rat 15 min after iv injection into the femoral vein; format: ADME, organism-based; conditions: in vivo, 0.25 h
Rattus norvegicus [13] = test: Distribution in spleen of healthy rat 24 hr after iv injection into the femoral vein; format: ADME, organism-based; conditions: in vivo
Rattus norvegicus [14] = test: Distribution in colon of healthy rat 15 min after iv injection into the femoral vein; format: ADME, organism-based; conditions: in vivo, 0.25 h
Rattus norvegicus [15] = test: Distribution in content of colon of healthy rat 30 min after iv injection into the femoral vein; format: ADME, organism-based; conditions: in vivo, 0.5 h
Rattus norvegicus [16] = test: Distribution in kidney of healthy rat 4 hr after iv injection into the femoral vein; format: ADME, organism-based; conditions: in vivo
Rattus norvegicus [17] = test: Distribution in content of small intestine of healthy rat 30 min after iv injection into the femoral vein; format: ADME, organism-based; conditions: in vivo, 0.5 h
Rattus norvegicus [18] = test: Distribution in small intestine of healthy rat 30 min after iv injection into the femoral vein; format: ADME, organism-based; conditions: in vivo, 0.5 h
Rattus norvegicus [19] = test: Distribution in lung of healthy rat 5 min after iv injection into the femoral vein; format: ADME, organism-based; conditions: in vivo
Rattus norvegicus [20] = test: Distribution in blood of healthy rat 15 min after iv injection into the femoral vein; format: ADME, organism-based; conditions: in vivo, 0.25 h
Rattus norvegicus [21] = test: Distribution in colon of healthy rat 4 hr after iv injection into the femoral vein; format: ADME, organism-based; conditions: in vivo
B2 bradykinin receptor [22] = molecular target: T1, B2 bradykinin receptor (Cavia porcellus, UniProt O70526); test: In vitro antagonistic activity for Bradykinin receptor B2 by guinea pig pulmonary artery assay.; format: functional
T1 sequence (O70526 whole entry): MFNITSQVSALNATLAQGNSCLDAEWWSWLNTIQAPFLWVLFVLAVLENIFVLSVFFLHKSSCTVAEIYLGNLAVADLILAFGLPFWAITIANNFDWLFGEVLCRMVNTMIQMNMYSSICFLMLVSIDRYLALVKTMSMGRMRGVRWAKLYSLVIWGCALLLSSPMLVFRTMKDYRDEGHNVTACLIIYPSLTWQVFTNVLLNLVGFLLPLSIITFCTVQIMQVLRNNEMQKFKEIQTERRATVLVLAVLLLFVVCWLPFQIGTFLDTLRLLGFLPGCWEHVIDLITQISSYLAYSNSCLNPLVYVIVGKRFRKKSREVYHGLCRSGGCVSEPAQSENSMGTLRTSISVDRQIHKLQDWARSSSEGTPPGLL

Rattus norvegicus [23] = test: Distribution in thyroid gland of healthy rat 15 min after iv injection into the femoral vein; format: ADME, organism-based; conditions: in vivo, 0.25 h
Rattus norvegicus [24] = test: Distribution in stomach of healthy rat 24 hr after iv injection into the femoral vein; format: ADME, organism-based; conditions: in vivo
Rattus norvegicus [25] = test: Distribution in lung of healthy rat 24 hr after iv injection into the femoral vein; format: ADME, organism-based; conditions: in vivo
Rattus norvegicus [26] = test: Distribution in liver of healthy rat 5 min after iv injection into the femoral vein; format: ADME, organism-based; conditions: in vivo
Rattus norvegicus [27] = test: Distribution in content of colon of healthy rat 4 hr after iv injection into the femoral vein; format: ADME, organism-based; conditions: in vivo
Rattus norvegicus [28] = test: Distribution in thyroid gland of healthy rat 5 min after iv injection into the femoral vein; format: ADME, organism-based; conditions: in vivo
[29] = Distribution in feces of healthy rat 24 hr after iv injection into the femoral vein; format: ADME, organism-based; conditions: faeces, read-out: Organ distribution
Rattus norvegicus [30] = test: Distribution in small intestine of healthy rat 24 hr after iv injection into the femoral vein; format: ADME, organism-based; conditions: in vivo
Rattus norvegicus [31] = test: Distribution in lung of healthy rat 30 min after iv injection into the femoral vein; format: ADME, organism-based; conditions: in vivo, 0.5 h
Rattus norvegicus [32] = test: Distribution in kidney of healthy rat 24 hr after iv injection into the femoral vein; format: ADME, organism-based; conditions: in vivo
Rattus norvegicus [33] = test: Distribution in liver of healthy rat 24 hr after iv injection into the femoral vein; format: ADME, organism-based; conditions: in vivo
Rattus norvegicus [34] = test: Distribution in spleen of healthy rat 30 min after iv injection into the femoral vein; format: ADME, organism-based; conditions: in vivo, 0.5 h
Rattus norvegicus [35] = test: Distribution in liver of healthy rat 15 min after iv injection into the femoral vein; format: ADME, organism-based; conditions: in vivo, 0.25 h
Rattus norvegicus [36] = test: Distribution in bladder and urine of healthy rat 15 min after iv injection into the femoral vein; format: ADME, organism-based, Urinary bladder/Urine; conditions: in vivo, 0.25 h
Rattus norvegicus [37] = test: Distribution in content of small intestine of healthy rat 15 min after iv injection into the femoral vein; format: ADME, organism-based; conditions: in vivo, 0.25 h
Rattus norvegicus [38] = test: Distribution in spleen of healthy rat 4 hr after iv injection into the femoral vein; format: ADME, organism-based; conditions: in vivo
Rattus norvegicus [39] = test: Distribution in thyroid gland of healthy rat 24 hr after iv injection into the femoral vein; format: ADME, organism-based; conditions: in vivo
Rattus norvegicus [40] = test: Distribution in content of small intestine of healthy rat 24 hr after iv injection into the femoral vein; format: ADME, organism-based; conditions: in vivo
B2 bradykinin receptor [41] = molecular target: T1, B2 bradykinin receptor; test: In vitro antagonistic activity for Bradykinin receptor B2 by guinea pig ileal membrane receptor assay.; format: functional
Rattus norvegicus [42] = test: Distribution in lung of healthy rat 15 min after iv injection into the femoral vein; format: ADME, organism-based; conditions: in vivo, 0.25 h
Rattus norvegicus [43] = test: Distribution in blood of healthy rat 4 hr after iv injection into the femoral vein; format: ADME, organism-based; conditions: in vivo
Rattus norvegicus [44] = test: Distribution in thyroid gland of healthy rat 30 min after iv injection into the femoral vein; format: ADME, organism-based; conditions: in vivo, 0.5 h
Rattus norvegicus [45] = test: Distribution in bladder and urine of healthy rat 4 hr after iv injection into the femoral vein; format: ADME, organism-based, Urinary bladder/Urine; conditions: in vivo
Rattus norvegicus [46] = test: Distribution in kidney of healthy rat 5 min after iv injection into the femoral vein; format: ADME, organism-based; conditions: in vivo
Rattus norvegicus [47] = test: Distribution in content of small intestine of healthy rat 5 min after iv injection into the femoral vein; format: ADME, organism-based; conditions: in vivo
Rattus norvegicus [48] = test: Distribution in content of colon of healthy rat 24 hr after iv injection into the femoral vein; format: ADME, organism-based; conditions: in vivo
Rattus norvegicus [49] = test: Distribution in small intestine of healthy rat 15 min after iv injection into the femoral vein; format: ADME, organism-based; conditions: in vivo, 0.25 h
Rattus norvegicus [50] = test: Distribution in lung of healthy rat 4 hr after iv injection into the femoral vein; format: ADME, organism-based; conditions: in vivo
Rattus norvegicus [51] = test: Distribution in content of colon of healthy rat 5 min after iv injection into the femoral vein; format: ADME, organism-based; conditions: in vivo
Rattus norvegicus [52] = test: Distribution in stomach of healthy rat 30 min after iv injection into the femoral vein; format: ADME, organism-based; conditions: in vivo, 0.5 h
Rattus norvegicus [53] = test: Distribution in liver of healthy rat 30 min after iv injection into the femoral vein; format: ADME, organism-based; conditions: in vivo, 0.5 h
Rattus norvegicus [54] = test: Distribution in bladder and urine of healthy rat 30 min after iv injection into the femoral vein; format: ADME, organism-based, Urinary bladder/Urine; conditions: in vivo, 0.5 h
Rattus norvegicus [55] = test: Distribution in bladder and urine of healthy rat 5 min after iv injection into the femoral vein; format: ADME, organism-based, Urinary bladder/Urine; conditions: in vivo
Rattus norvegicus [56] = test: Distribution in spleen of healthy rat 5 min after iv injection into the femoral vein; format: ADME, organism-based; conditions: in vivo
Rattus norvegicus [57] = test: Distribution in colon of healthy rat 5 min after iv injection into the femoral vein; format: ADME, organism-based; conditions: in vivo
Rattus norvegicus [58] = test: Distribution in bladder and urine of healthy rat 24 hr after iv injection into the femoral vein; format: ADME, organism-based, Urinary bladder/Urine; conditions: in vivo
Rattus norvegicus [59] = test: Distribution in stomach of healthy rat 4 hr after iv injection into the femoral vein; format: ADME, organism-based; conditions: in vivo
Rattus norvegicus [60] = test: Distribution in thyroid gland of healthy rat 4 hr after iv injection into the femoral vein; format: ADME, organism-based; conditions: in vivo
Rattus norvegicus [61] = test: Distribution in blood of healthy rat 30 min after iv injection into the femoral vein; format: ADME, organism-based; conditions: in vivo, 0.5 h
Rattus norvegicus [62] = test: Distribution in kidney of healthy rat 30 min after iv injection into the femoral vein; format: ADME, organism-based; conditions: in vivo, 0.5 h
Rattus norvegicus [63] = test: Distribution in small intestine of healthy rat 4 hr after iv injection into the femoral vein; format: ADME, organism-based; conditions: in vivo

N=C(N)NCCC[C@H](NC(=O)[C@@H]1C[C@@H]2CCCC[C@@H]2N1C(=O)[C@H]1Cc2ccccc2CN1C(=O)[C@H](CO)NC(=O)[C@H](Cc1cccs1)NC(=O)CNC(=O)[C@@H]1C[C@@H](O)CN1C(=O)[C@@H]1CCCN1C(=O)[C@H](CCCNC(=N)N)NC(=O)[C@@H](CCCNC(=N)N)NC(=O)c1ccc(CN2CCCNCCNCCCNCC2)cc1)C(=O)O
Organ distribution (Rattus norvegicus [1]): 0.5%
Organ distribution (Rattus norvegicus [2]): 2.92%
Organ distribution (Rattus norvegicus [3]): 7%
Organ distribution (Rattus norvegicus [4]): 5.03%
Organ distribution (Rattus norvegicus [5]): 1.85%
Organ distribution (Rattus norvegicus [6]): 0.19%
Organ distribution (Rattus norvegicus [7]): 0.09%
Organ distribution (Rattus norvegicus [8]): 0.2%
Organ distribution (Rattus norvegicus [9]): 0.48%
Organ distribution (Rattus norvegicus [10]): 13.2%
Organ distribution (Rattus norvegicus [11]): 1.55%
Organ distribution (Rattus norvegicus [12]): 1.13%
Organ distribution (Rattus norvegicus [13]): 0.08%
Organ distribution (Rattus norvegicus [14]): 0.65%
Organ distribution (Rattus norvegicus [15]): 0.17%
Organ distribution (Rattus norvegicus [16]): 4.33%
Organ distribution (Rattus norvegicus [17]): 4.84%
Organ distribution (Rattus norvegicus [18]): 1.67%
Organ distribution (Rattus norvegicus [19]): 1.2%
Organ distribution (Rattus norvegicus [20]): 8.62%
Organ distribution (Rattus norvegicus [21]): 0.44%
IC50 (B2 bradykinin receptor [22]): 0.014 µM
Organ distribution (Rattus norvegicus [23]): 0.11%
Organ distribution (Rattus norvegicus [24]): 0.06%
Organ distribution (Rattus norvegicus [25]): 0.04%
Organ distribution (Rattus norvegicus [26]): 5.25%
Organ distribution (Rattus norvegicus [27]): 6.96%
Organ distribution (Rattus norvegicus [28]): 0.12%
dose excreted at 24 h [29]: 8.4%
Organ distribution (Rattus norvegicus [30]): 0.19%
Organ distribution (Rattus norvegicus [31]): 0.55%
Organ distribution (Rattus norvegicus [32]): 3.07%
Organ distribution (Rattus norvegicus [33]): 2.72%
Organ distribution (Rattus norvegicus [34]): 0.19%
Organ distribution (Rattus norvegicus [35]): 4.48%
Organ distribution (Rattus norvegicus [36]): 20.3%
Organ distribution (Rattus norvegicus [37]): 2.79%
Organ distribution (Rattus norvegicus [38]): 0.12%
Organ distribution (Rattus norvegicus [39]): 0.01%
Organ distribution (Rattus norvegicus [40]): 0.06%
IC50 (B2 bradykinin receptor [41]): 0.00803 µM
Organ distribution (Rattus norvegicus [42]): 0.82%
Organ distribution (Rattus norvegicus [43]): 0.5%
Organ distribution (Rattus norvegicus [44]): 0.11%
Organ distribution (Rattus norvegicus [45]): 74.9%
Organ distribution (Rattus norvegicus [46]): 8.46%
Organ distribution (Rattus norvegicus [47]): 1.83%
Organ distribution (Rattus norvegicus [48]): 0.56%
Organ distribution (Rattus norvegicus [49]): 3.74%
Organ distribution (Rattus norvegicus [50]): 0.1%
Organ distribution (Rattus norvegicus [51]): 0.22%
Organ distribution (Rattus norvegicus [52]): 0.91%
Organ distribution (Rattus norvegicus [53]): 4.31%
Organ distribution (Rattus norvegicus [54]): 33%
Organ distribution (Rattus norvegicus [55]): 3.83%
Organ distribution (Rattus norvegicus [56]): 0.27%
Organ distribution (Rattus norvegicus [57]): 1%
Organ distribution (Rattus norvegicus [58]): 79.9%
Organ distribution (Rattus norvegicus [59]): 0.46%
Organ distribution (Rattus norvegicus [60]): 0.02%
Organ distribution (Rattus norvegicus [61]): 5.5%
Organ distribution (Rattus norvegicus [62]): 8.86%
Organ distribution (Rattus norvegicus [63]): 0.71%
